Data as given in PMC12005787, “Synthetic Lethality of SHP2 and XIAP Suppresses Proliferation and Metastasis in KRAS‐mutant Nonsmall Cell Lung Cancer” (Advanced Science, 2025).

Legend:
[1] = test system: NCI‐H2122 and A549 cells; experiment: Intracellular ATP assay; assay type: cell-based, human; settings: monolayer 24 h and 3D culture 48 h
Procedure: supplies are listed in Supplementary Table S5. […]
For the adherent cell viability assay, cells in the logarithmic growth phase were seeded in 96-well culture plates at a density of 5×103 well-1 and incubated overnight. Diluted compounds or DMSO were added, or specific treatments were incubated at 37 °C and 5% CO2 for 24 h or 48 h. Cell viability was determined using CCK-8 or CellLightTM Cell Viability Assay Kit, according to the manufacturer's protocol. The luminescence signals of the treated samples were normalized to those of the DMSO group.
For spherical cell viability assays, cells in the logarithmic growth phase were inoculated ata density of 4×10^3 well-1 into 96-well spherical cell microplates and incubated at 37 °C, 5% CO2 for 24 h or 48 h. Cell viability was measured using the CellTiter-Glo® Luminescent Cell Viability 3D Cell Viability Assay Kit, according to the manufacturer’s protocol. The remaining steps were the same as those described above. […]

[2] = biological target: T1, His‐ΔSHP2 (Homo sapiens, UniProt Q06124); experiment: Enzymatic inhibition analysis (Michaelis-Menten, Lineweaver-Burk); assay type: biochemical
T1 construct: His‐ΔSHP2, encompassing the peptide from amino acids 205–593 retaining PTP activity; His; made in house; host or cells: E. coli
T1 sequence (Q06124 205-593): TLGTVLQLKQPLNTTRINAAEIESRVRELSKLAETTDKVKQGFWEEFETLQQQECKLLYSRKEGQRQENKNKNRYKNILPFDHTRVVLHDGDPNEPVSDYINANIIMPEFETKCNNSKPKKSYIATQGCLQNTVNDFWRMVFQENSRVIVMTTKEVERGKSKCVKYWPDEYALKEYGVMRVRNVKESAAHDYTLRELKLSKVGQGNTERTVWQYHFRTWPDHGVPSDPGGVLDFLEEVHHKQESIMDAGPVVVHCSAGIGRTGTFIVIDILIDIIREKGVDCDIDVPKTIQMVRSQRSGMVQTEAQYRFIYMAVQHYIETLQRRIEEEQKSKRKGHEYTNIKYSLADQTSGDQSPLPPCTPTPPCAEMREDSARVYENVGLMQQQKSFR
Procedure: A Michaelis‐Menten model and Lineweaver‐Burk plot of SHP2 inhibition by embelin were established. In brief, enzyme kinetics of SHP2 varied with the concentrations of substrate DiFMUP and embelin, concentrations of embelin were selected at 0, 10, and 20 µM, and concentrations of DiFMUP were selected at 10, 20, 40, 80, and 160 µM. Recombinant His‐ΔSHP2 was preincubated for 30 min with embelin or DMSO at various concentrations in the absence of substrate and then assayed for enzymatic activity at different times as mentioned above.

[3] = biological target: T2, ΔSHP2^K325A (Homo sapiens, UniProt Q06124, K325A); experiment: PTP activity assay of K325A mutant; assay type: biochemical
T2 construct: His‐ΔSHP2, encompassing the peptide from amino acids 205–593 retaining PTP activity; His; made in house; host or cells: E. coli BL21
Procedure: Catalytic activity screening methods for PTPs using candidate compounds were performed as previously described.^[ [77] ^] In brief, soluble fusion PTP proteins, His‐ΔSHP2, encompassing the peptide from amino acids 205–593 retaining PTP activity, His‐ΔSHP2^K325A, His‐ΔSHP1, encompassing the peptide from amino acids 202–595 retaining PTP activity, His‐PTP1B, His‐HePTP, His‐VHR, and His‐TCPTP were cloned, expressed, and purified in E. coli. After determining protein concentration using bicinchoninic acid (BCA) assay kit, 1 µg fusion protein, 10 µM library compound were added in 100 µL reaction mixture (55 mM 4‐(2‐hydroxyethyl)‐1‐piperazineethanesulfonic acid [HEPES], 100 mM sodium chloride [NaCl], 0.5 mM ethylenediaminetetraacetic acid [EDTA], 1 mM dithiothreitol [DTT], 0.01% Triton X‐100, 0.002% bovine serum albumin [BSA], and 0.1% dimethyl sulfoxide [DMSO]) and incubated at 37 °C for 30 min in the dark, with Na3VO4 as positive control. The detection substrate DiFMUP (50 µM) was promptly added to each reaction and functioned at 37 °C for 30 min in the dark. The fluorescence intensity was then measured using Multimode Plate Reader (λa = 358 nm, λe = 455 nm, PerkinElmer, USA).
A single‐point mutation assay of the pET32a‐ΔSHP2 plasmid was performed using the QuickMutation Site‐Directed Mutagenesis Kit (Beyotime, Shanghai, China). […]

[4] = test system: NCI-H2122, A549, and NCI-H1944 cells; experiment: Cell senescence β-galactosidase staining; assay type: cell-based, human; settings: A549, NCI‐H2122, and NCI‐H1944 cells
Procedure: Cell senescence β-galactosidase staining
NCI-H2122, A549, and NCI-H1944 cells in the logarithmic growth phase were seeded into 48-well plates and cultured overnight. The supernatant was aspirated and fresh serum-free (0%), low-serum (3%), or regular serum (10%) medium with different drugs was added for 48 h. When the supernatant was discarded, β-galactosidase staining fixation fluid were added for 15 min and β-galactosidase staining solution were imported overnight at 37 ℃.
Finally, the staining results were recorded using an inverted microscope.

[5] = biological target: T3, His‐ΔSHP2^K325A (Homo sapiens, UniProt Q06124, K325A); experiment: Isothermal titration calorimetry; assay type: binding; settings: read-out: KD value (ITC)
T3 construct: His‐ΔSHP2, encompassing the peptide from amino acids 205–593 retaining PTP activity; His; made in house; host or cells: E. coli BL21
Procedure: The purified His‐ΔSHP2, His‐SHP2, or His‐ΔSHP2^K325A proteins were dialyzed overnight in dialysis buffer (20 mM HEPES, 0.15 M NaCl, 1 mM TCEP, 10% glycerol, pH 7.5). The protein concentration was determined using the BCA Protein Assay Kit, and the purity of the proteins was detected by Coomassie Brilliant Blue staining. ITC experiments were performed when the protein concentration was higher than 2 mg mL^−1 and the purity was greater than 90%. The instrument (Malvern Instruments, USA) was considered to be functioning optimally for compound and protein titration experiments when the DP value was < 0.05 µcal s^−1 by the water droplet experiment. After the sample cell was cleaned twice with protein dialysis buffer, a protein sample (300 µL) was loaded to the sample cell, an equal amount of ultrapure water was added to the reference cell, and the compound solution dissolved with the same dialysis buffer was put into the corresponding cell, in which the protein‐compound molar ratio was 1:10–1:20. The parameters were adjusted based on the curve‐fitting results to determine the optimal binding concentration gradient. Based on the exothermic changes in the reaction, the entropy increase and enthalpy change were analyzed using software fitting to obtain parameters such as the binding coefficient and affinity constant between the small molecules and proteins. […]

[6] = embelin 0, 10, 20 µM, DiFMUP 10-160 µM

type of inhibition of SHP2 [2]: noncompetitive inhibitor
Km of ΔSHP2 protein after addition of compound [2, 6]: unchanged
Vm of ΔSHP2 protein after addition of compound [2, 6]: decreased
inhibitory effect on activity of ΔSHP2^K325A versus wild-type ΔSHP2 [3]: notably diminished the inhibitory effect
Kd [5]: 346 nM
SMILES: CCCCCCCCCCCC1=C(O)C(=O)C=C(O)C1=O [Embelin]
effect on intracellular ATP [1]: significantly inhibited ATP release
induction of cell senescence [4]: induced senescence
